Source: patent US20040067998A1, “Antifungal and/or antiparasitic pharmaceutical composition and novel indole derivatives as active principle of such a composition” (priority 2003, published 2004)
In brackets after ≈: the same amount, converted by molar mass. Several values for one entry are separate records, joined by “and”; a condition that tells them apart may be missing. Equal entries are not always repeated. Where two headings read alike, the source gives them in different places.

Key:
[1] = tested on: promastigote stage of Leishmania mexicana; experiment: Antiparasitic activity on the promastigote form of Leishmania (MTT); assay type: cell-based; conditions: for IC50: read-out: CI50 Leishmania mexicana Promastigotes
[2] = tested on: Candida albicans (strain n° CA980001); experiment: Antifungal activity on a clinical strain of Candida albicans (MTT colorimetric microplate test); assay type: cell-based; conditions: for MIC / CMI or CI80 Candida albicans (CA980001): strain CA980001; for MIC: read-out: CMI or CI80 Candida albicans (CA980001)
[3] = tested on: Aspergillus fumigatus (strain n°AF 980003); experiment: Antifungal activity on a clinical strain of Aspergillus fumigatus (Alamar Blue microplate test); assay type: cell-based; conditions: for MIC / CMI or CI80 Aspergillus fumigatus (AF980003): strain AF980003; for MIC: read-out: CMI or CI80 Aspergillus fumigatus (AF980003); for activity against Aspergillus fumigatus (in words): summary of Tables 27 to 40
[4] = tested on: Candida albicans (CA98001); experiment: Antifungal activity in vivo on a model of disseminated candidiasis; design: species or system female Swiss mice; conditions: mouse, in vivo
[5] = Candida albicans, 24 h at 37° C., MTT
[6] = promastigotes, 36 h at 26° C., MTT

Compound	CMI or CI80 Candida albicans (CA980001) ([2]; 24 h at 37° C., MTT)	CMI or CI80 Aspergillus fumigatus (AF980003) ([3]; Alamar Blue)	CI50 Leishmania mexicana Promastigotes [1]	IC50 [1]	MIC ([2]; 24 h at 37° C., MTT)	MIC ([3]; Alamar Blue)	further results
Fc1ccc(C(C(n2ccc3ccccc32)n2nnc3ccccc32)n2ccnc2)cc1 (stereo not drawn) [Cpsé 83, 1-[2-(4-Fluorophenyl)-2-(1H-imidazol-1-yl)-1-(benzotriazol-1-yl)ethyl]-1H-indole]							IC50 ([1]; Leishmania mexicana): 14 µg/mL and 35 µM; MIC ([2]; Candida albicans, 24 h): 66 ± 6 µM (≈ 27.9 µg/mL); CMI or CI80 Candida albicans (CA980001) ([2]; listed as 46): 26 ± 2 µg/mL; MIC ([3]; Aspergillus fumigatus): > 100 µM
Fc1ccc(Cn2cc(Cn3ccnc3)c3cccnc32)cc1 [Cpsé 88, 1-(4-Fluorobenzyl)-3-(1H-Imidazol-1ylmethyl)-1H-7-azaindole]							IC50 ([1]; Leishmania mexicana, promastigotes, 36 h at 26° C., MTT): 16.6 µM and 6.64 µg/mL; MIC [2, 5]: 0.7 ± 0.01 µM (≈ 0.214 µg/mL); CMI or CI80 Candida albicans (CA980001) ([2]; 24 h at 37° C., MTT, listed as 51): 0.28 ± 0.01 µg/mL; activity of inhibition of Candida albicans (in words) ([2]; summary of Tables 27 to 40): most active; MIC ([3]; Aspergillus fumigatus, Alamar Blue): > 100 µM
OC(Cn1cncn1)(Cn1cncn1)c1ccc(F)cc1F [Fluconazole, fluconazole, reference compound]	0.02 µg/mL						MIC [2, 5]: 0.07 µM (≈ 0.0214 µg/mL); survival at D10 [4]: 100%
Fc1cccc(Cn2cc(Cn3ccnc3)c3ccccc32)c1 [compound 5]	68 ± 1 μM and 20.76 ± 1 μg/ml	46 ± 5 μM and 14 ± 1.5 μg/ml					CI50 Leishmania mexicana Promastigotes [1, 6]: 9.2 ± 0.7 µg/mL (≈ 30.1 µM); IC50 [1, 6]: 30.4 ± 2.5 µM; activity against Aspergillus fumigatus (in words) [3]: strong activity
Fc1ccc(Cn2cc(Cn3ccnc3)c3ccccc32)c(F)c1 [compound 6]	48 ± 4 μM and 16 ± 2 μg/ml	60 ± 2 μM and 19.4 ± 2 μg/ml					CI50 Leishmania mexicana Promastigotes [1, 6]: 6 ± 0.5 µg/mL (≈ 18.6 µM); IC50 [1, 6]: 18.5 ± 1.8 µM; activity against Aspergillus fumigatus (in words) [3]: strong activity
Fc1ccccc1Cn1cc(Cn2ccnc2)c2cc(Br)ccc21 [compound 11]			18.3 ± 0.6 µg/mL (≈ 47.6 µM)	47.7 ± 1.6 µM	>100 µM	>100 µM	
Fc1ccc(Cn2cc(Cn3ccnc3)c3cc(Br)ccc32)cc1 [compound 12]			7.9 ± 0.9 µg/mL (≈ 20.6 µM)	20.6 ± 2.4 µM	>100 µM	>100 µM	
Clc1ccc(Cn2cc(Cn3ccnc3)c3cc(Cl)ccc32)cc1 [compound 14]	30 µg/mL	71 ± 3 μM and 25 ± 1 μg/ml	non linear		85 µM (≈ 30.3 µg/mL)		
Fc1ccc2c(c1)c(Cn1ccnc1)cn2Cc1ccc(Cl)cc1 [compound 15]	21 ± 1 μM and 7 ± 1 μg/ml	61 ± 3 μM and 20.73 ± 3 μg/ml					CI50 Leishmania mexicana Promastigotes [1, 6]: 5.4 ± 1.6 µg/mL (≈ 15.9 µM); IC50 [1, 6]: 15.9 ± 5 µM; activity against Aspergillus fumigatus (in words) [3]: strong activity
Fc1ccccc1Cn1cc(Cn2cncn2)c2cc(Br)ccc21 [compound 24]			30.74 µg/mL (≈ 79.8 µM)	79.8 µM	>100 µM	>100 µM	
Fc1ccc(Cn2cc(Cn3cncn3)c3cc(Br)ccc32)cc1 [compound 25]			19.38 µg/mL (≈ 50.3 µM)	50.3 µM	>100 µM	>100 µM	
CCn1c(C(c2cccc(Cl)c2)n2ccnc2)c(C)c2cc(Br)ccc21 (stereo not drawn) [compound 32]				< 0.1 µM			activity against Leishmania mexicana (in words) [1]: most active; CMI or CI80 Candida albicans (CA980001) [2]: 62 ± 1 μM and 27 ± 0.5 μg/mL; CMI or CI80 Aspergillus fumigatus (AF980003) [3]: 66 ± 5 μM and 28 ± 2 μg/mL
